Reference: ChEMBL document CHEMBL1201862, “PubChem BioAssay data set” (2004)
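The compound was tested at five concentrations on cells cultured in 96-well plates, with a 48-hour exposure period. Here, GI50 denotes the concentration required for 50% inhibition of growth.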 The source made the active and inactive calls. Rule as the data show it: active = GI50 up to about 1.1 µM and inactive = higher.

Assays:
Assay in all cases: inhibition of tumour cell growth, NCI panel, 48 h
KM12 = tested on: KM12
NCI-H23 = tested on: NCI-H23
U-251 = tested on: U-251
PC-3 = tested on: PC-3
MCF7 = tested on: MCF7
SN12C = tested on: SN12C
UACC-257 = tested on: UACC-257
DU-145 = tested on: DU-145
SW-620 = tested on: SW-620
HT-29 = tested on: HT-29
SK-MEL-5 = tested on: SK-MEL-5
A498 = tested on: A498
T47D = tested on: T47D
LOX IMVI = tested on: LOX IMVI
SK-MEL-28 = tested on: SK-MEL-28
EKVX = tested on: EKVX
MDA-MB-435 = tested on: MDA-MB-435
SF-268 = tested on: SF-268
SR = tested on: SR
SK-OV-3 = tested on: SK-OV-3

Measured: GI50

O=[N+]([O-])c1ccc(C2c3c(O)nc(S)nc3Oc3nc(S)nc(O)c32)cc1
inactive: KM12 > 100 µM | NCI-H23 > 100 µM | U-251 > 100 µM | PC-3 > 100 µM | MCF7 > 100 µM | SN12C > 100 µM | UACC-257 > 100 µM | DU-145 > 100 µM | SW-620 > 100 µM | HT-29 > 100 µM | SK-MEL-5 > 100 µM | A498 > 100 µM | T47D > 100 µM | LOX IMVI > 100 µM | SK-MEL-28 > 100 µM | EKVX > 100 µM | MDA-MB-435 > 100 µM

Cc1c(OCc2cccc3ccccc23)ccc2c(=O)cc(SCCN3CCOCC3)oc12
inactive: KM12 > 100 µM | NCI-H23 > 100 µM | U-251 > 100 µM | PC-3 > 100 µM | SF-268 > 100 µM | MCF7 > 100 µM | SN12C > 100 µM | SR > 100 µM | UACC-257 > 100 µM | DU-145 > 100 µM | SW-620 > 100 µM | HT-29 > 100 µM | SK-MEL-5 > 100 µM | A498 > 100 µM | T47D > 100 µM | LOX IMVI > 100 µM | SK-MEL-28 > 100 µM | EKVX > 100 µM | MDA-MB-435 > 100 µM

O=C1N/C(=N/N=C/c2ccccc2)N/C1=C\c1c[nH]c2ccccc12
inactive: KM12 65 µM | NCI-H23 95.1 µM | U-251 21.9 µM | SK-OV-3 > 100 µM | PC-3 22.6 µM | SF-268 56.6 µM | MCF7 80.7 µM | SN12C 29.2 µM | UACC-257 > 100 µM | DU-145 > 100 µM | SW-620 64.4 µM | HT-29 > 100 µM | SK-MEL-5 > 100 µM | A498 > 100 µM | T47D > 100 µM | LOX IMVI 44.1 µM | SK-MEL-28 > 100 µM | EKVX 84.5 µM | MDA-MB-435 > 100 µM

CC(=O)NC1C(Sc2ncn(C3OC(CO)C(O)C(O)C3NC(C)=O)n2)OC(CO)C(O)C1O (stereo not given)
inactive: KM12 > 100 µM | NCI-H23 > 100 µM | U-251 > 100 µM | SK-OV-3 > 100 µM | PC-3 > 100 µM | SF-268 > 100 µM | MCF7 > 100 µM | SN12C > 100 µM | UACC-257 > 100 µM | DU-145 > 100 µM | SW-620 > 100 µM | HT-29 > 100 µM | SK-MEL-5 > 100 µM | A498 > 100 µM | T47D > 100 µM | LOX IMVI > 100 µM | SK-MEL-28 > 100 µM | EKVX > 100 µM | MDA-MB-435 > 100 µM

[O-][S+](Nc1ccccc1)c1ccc(Cl)cc1 (stereo not given)
inactive: KM12 17.5 µM | NCI-H23 > 100 µM | U-251 23.6 µM | SF-268 16.2 µM | MCF7 > 100 µM | SN12C > 100 µM | SR 16.4 µM | UACC-257 > 100 µM | DU-145 91.4 µM | SW-620 > 100 µM | HT-29 > 100 µM | SK-MEL-5 35.9 µM | T47D 50.1 µM | LOX IMVI > 100 µM | SK-MEL-28 > 100 µM | EKVX > 100 µM | MDA-MB-435 31.4 µM

CCCCC1c2c([nH]c3ccccc23)C2C(=O)N(c3ccc(OC)cc3)C(=O)C2C1CCC (stereo not given)
inactive: KM12 2.1 µM | NCI-H23 3.89 µM | U-251 8.71 µM | SK-OV-3 > 10 µM | PC-3 2.6 µM | SF-268 4.35 µM | SN12C 2.18 µM | SR 4.75 µM | UACC-257 3.61 µM | DU-145 5.12 µM | SW-620 3.95 µM | HT-29 3.13 µM | SK-MEL-5 5.38 µM | A498 3.4 µM | T47D > 10 µM | LOX IMVI > 10 µM | SK-MEL-28 5.4 µM | EKVX 3.56 µM | MDA-MB-435 2.24 µM

CC(=O)OC1CC[C@@]2(C)C(=CC[C@@H]3[C@@H]2CC[C@]2(C)Nc4c(cnn4-c4ccc(F)cc4)C[C@@H]32)C1 (stereo not given in full)
inactive: KM12 16.2 µM | NCI-H23 22.1 µM | U-251 7.43 µM | SK-OV-3 32.1 µM | PC-3 23.1 µM | SF-268 39.4 µM | MCF7 > 34.8 µM | SN12C > 100 µM | UACC-257 45.1 µM | DU-145 45.5 µM | SW-620 22.9 µM | HT-29 13.2 µM | SK-MEL-5 25.9 µM | A498 19.8 µM | T47D 14.9 µM | LOX IMVI 7.85 µM | SK-MEL-28 15.1 µM | EKVX 33.5 µM | MDA-MB-435 39.4 µM

NNC(=O)c1cc([N+](=O)[O-])ccc1NC(=O)C12CC3CC(CC(C3)C1)C2
inactive: KM12 20.1 µM | NCI-H23 19.5 µM | U-251 6.92 µM | SK-OV-3 2.7 µM | PC-3 13 µM | SF-268 3.82 µM | MCF7 23.1 µM | SN12C 8.63 µM | SR 3.43 µM | UACC-257 15.2 µM | DU-145 20 µM | SW-620 7.74 µM | HT-29 25.8 µM | SK-MEL-5 19.2 µM | T47D 10 µM | LOX IMVI 2.93 µM | EKVX 7.05 µM | MDA-MB-435 14.3 µM

CO[C@@]12C[C@@H](CNC(=O)c3cc(Br)c[nH]3)O[C@@H]1NC(=O)N2
inactive: KM12 > 100 µM | NCI-H23 > 100 µM | U-251 > 100 µM | SK-OV-3 > 100 µM | PC-3 > 100 µM | SF-268 > 100 µM | MCF7 > 100 µM | SN12C > 100 µM | UACC-257 > 100 µM | DU-145 > 100 µM | SW-620 > 100 µM | HT-29 > 100 µM | SK-MEL-5 > 100 µM | A498 > 100 µM | T47D > 100 µM | LOX IMVI > 100 µM | SK-MEL-28 > 100 µM | EKVX > 100 µM | MDA-MB-435 > 100 µM

CCCCCCCCC[C@@H]1C[C@@H]2CCC3C(C(=O)OC)=C(C)N=C(N1)N32 (stereo not given in full)
inactive: KM12 3.43 µM | NCI-H23 3.85 µM | U-251 3.27 µM | SK-OV-3 10.6 µM | PC-3 3.64 µM | SF-268 5.05 µM | MCF7 3.72 µM | SN12C 14.6 µM | SR 3.91 µM | UACC-257 10.5 µM | DU-145 6.41 µM | SW-620 15.6 µM | HT-29 4.25 µM | SK-MEL-5 5.32 µM | T47D 10.6 µM | LOX IMVI 9.86 µM | SK-MEL-28 21 µM | EKVX 10.5 µM | MDA-MB-435 2.25 µM

O=[N+]([O-])/C(C(Cl)=C(Cl)Cl)=C1\Nc2ccc([N+](=O)[O-])cc2N1
inactive: KM12 > 100 µM | NCI-H23 > 100 µM | U-251 60 µM | SK-OV-3 > 100 µM | PC-3 > 100 µM | SF-268 61.8 µM | MCF7 > 100 µM | SN12C 55.7 µM | UACC-257 > 100 µM | DU-145 > 100 µM | SK-MEL-5 > 100 µM | A498 > 100 µM | T47D > 100 µM | SK-MEL-28 > 100 µM | EKVX > 100 µM | MDA-MB-435 > 100 µM

COC(=O)C12CCCN1CCC2
inactive: KM12 > 100 µM | NCI-H23 > 100 µM | U-251 > 100 µM | SK-OV-3 > 100 µM | PC-3 > 100 µM | SF-268 > 100 µM | MCF7 > 100 µM | SN12C > 100 µM | SR > 100 µM | UACC-257 > 100 µM | DU-145 > 100 µM | SW-620 > 100 µM | HT-29 > 100 µM | SK-MEL-5 > 100 µM | T47D > 100 µM | LOX IMVI > 100 µM | SK-MEL-28 > 100 µM | EKVX > 100 µM | MDA-MB-435 > 100 µM

C[P+](c1ccccc1)(c1ccc(Cl)cc1)c1ccc(Cl)cc1
inactive: NCI-H23 12.3 µM | U-251 16.3 µM | SK-OV-3 37.2 µM | PC-3 20.2 µM | SF-268 38.6 µM | MCF7 26.9 µM | SN12C 15.6 µM | UACC-257 8.11 µM | DU-145 18.4 µM | SW-620 18.5 µM | HT-29 4.44 µM | SK-MEL-5 2.84 µM | A498 27.5 µM | T47D 7.6 µM | LOX IMVI 11.1 µM | SK-MEL-28 10 µM | EKVX 21.3 µM | MDA-MB-435 5.45 µM

COc1ccc(/N=C2/C(=N/c3ccc(OC)cc3)N(c3ccccc3)C(=S)N2N=C=C2Sc3ccccc3N2C)cc1
inactive: KM12 > 100 µM | NCI-H23 9.27 µM | U-251 88.7 µM | SK-OV-3 > 100 µM | PC-3 > 100 µM | SF-268 > 100 µM | MCF7 > 100 µM | SN12C > 100 µM | SR > 100 µM | UACC-257 > 100 µM | DU-145 > 100 µM | SW-620 > 100 µM | HT-29 > 100 µM | SK-MEL-5 > 100 µM | T47D > 100 µM | SK-MEL-28 > 100 µM | EKVX > 100 µM | MDA-MB-435 > 100 µM

CCOS(C)(=O)=O [METHANESULFONIC ACID ETHYL ESTER]
inactive: KM12 > 100 µM | NCI-H23 > 100 µM | U-251 > 100 µM | SK-OV-3 > 100 µM | PC-3 > 100 µM | SF-268 > 100 µM | MCF7 > 100 µM | SN12C > 100 µM | UACC-257 > 100 µM | DU-145 > 100 µM | SW-620 > 100 µM | HT-29 > 100 µM | SK-MEL-5 > 100 µM | A498 > 100 µM | T47D > 100 µM | LOX IMVI > 100 µM | SK-MEL-28 > 100 µM | EKVX > 100 µM | MDA-MB-435 > 100 µM
